{"source": "patent US20070213402A1", "about": "“Compounds which interact with the thyroid hormone receptor for the treatment of fibrotic disease” (priority 1998, published 2007)", "key": {"NFκB": {"tested_on": "NFκB", "experiment": "Experiment 3: NFκB-driven 3-EnhTK-Luc reporter in CV1 cells with GR1", "type": "cell-based, African Green Monkey", "description": "(§1) Two plasmid constructs were introduced by standard calcium phosphate precipitation of DNA followed by glycerol shock (Ausubel F M, Brent R, Kingston D D, Moore J G et al Current protocols in molecular biology 1994 Greene Publishing Associates/Wiley-Interscience, New York, N.Y.) using a transformed African Green Monkey kidney cell line (CV1) (Schneikert J, Peterziel H, Defossez P-A, Klocker H, de Launoit Y and Cato A C B Androgen receptor-Ets protein interaction is a novel mechanism for steroid hormone-mediated down-modulation of matrix metalloproteinase expression, Journal of Biological Chemistry. Vol 271(39) (pp 23907-23913), 1996).\nThis experiment was intended to show the effect of compounds I on a mediator of the immune response, nuclear factor—κB (NF-κB).\nThe following two plasmids were included into CV1 cells described above— • (a) GR1 as described above at 2 ug per 5×10^5 cells, and • (b) a plasmid designated 3-EnhTK-Luc (at 0.5 ug per 5×10^5 cells) which contains a transcription site that is activated by NFκB.\nThe blank represented the inclusion of these two plasmids alone; the relatively high value was caused by (i) the high level of serum in the culture, and (ii) the associated stress that the cells underwent during the […]—both of which upregulate NFκB. There was also a related relatively low activation of TNF (at 4 ng/ml) above a serum containing blank in the experiment. TNF was tumour necrosis factor alpha."}, "collagenase I promoter [1]": {"tested_on": "collagenase I promoter", "experiment": "Experiment 1: collagenase I promoter (-73/+63)-luciferase in CV1 cells transfected with GR1 (glucocorticoid receptor)", "type": "cell-based, African Green Monkey", "settings": "for % control (GR1): Blank = 100", "description": "as §1\n(§2) Accordingly, the following two plasmids were included into CV1 cells described above — • (a) Either of GR1 or pSG5ARF containing glucocorticoid or androgen receptor (AR) respectively, both at 2 ug per 5×10^5 cells, driven by the Rous sarcoma virus promoter, and • (b) a plasmid containing the −73/+63 portion of the collagenase I promoter linked to luciferase gene at 8 ug per 5×10^5 cells.\n(§3) CPII was compound II above, clobuzarit."}, "collagenase I promoter [2]": {"tested_on": "collagenase I promoter", "experiment": "Experiment 1: collagenase I promoter (-73/+63)-luciferase in CV1 cells transfected with pSG5ARF (androgen receptor)", "type": "cell-based, African Green Monkey", "settings": "for % control (AR): Blank = 100", "description": "as §1, §2, §3"}, "collagenase I promoter [3]": {"tested_on": "collagenase I promoter", "experiment": "Experiment 1: collagenase I promoter (-73/+63)-luciferase in CV1 cells, no receptor plasmid (Empty)", "type": "cell-based, African Green Monkey", "settings": "no receptor, substance added alone", "description": "as §1, §2, §3"}, "[4]": {"tested_on": "collagenase (MMP-1) promoter", "experiment": "Experiment 4.2: collagenase (MMP-1) promoter-luciferase in MCF-7 cells with antisense construct for the thyroid receptor", "type": "cell-based, human", "settings": "MCF-7 + thyroid receptor antisense, substance added alone", "procedure": "(§4) These experiments were intended to identify the receptor through which compounds I might be acting to block collagenase promoter activity.\n(§5) Transfection procedure hereinbefore described with CV1 cells was repeated using MCF-7 mammary breast cancer cells derived from pleural effusion from a breast cancer patient. Additionally, each experiment included transfection of a plasmid (at 8 ug per 5×10^5 cells) containing the −517/+63 section of the collagenase (MMP-1) promoter linked to the luciferase gene. TPA was used as above to stimulate activity of the collagenase promoter resulting in luciferase production. Compound II or 3,3,5-triiodo-L-thyronine (T3) was included (both at 10^−8M), the latter being a known ligand for the thyroid hormone receptor.\nExperiment 4.2. The procedure of Experiment 4.1 was repeated except that a second plasmid, containing 662 bp antisense construct for the thyroid receptor (at 8 ug per 5×10^5 cells) was additionally transfected."}, "[5]": {"tested_on": "collagenase (MMP-1) promoter", "experiment": "Experiment 4.3: collagenase (MMP-1) promoter-luciferase in MCF-7 cells with transfected chick thyroid hormone receptor", "type": "cell-based, human", "settings": "MCF-7 + chick thyroid hormone receptor, substance added alone", "procedure": "as §4, §5"}, "[6]": {"tested_on": "collagenase (MMP-1) promoter", "experiment": "Experiment 4.1: collagenase (MMP-1) promoter (-517/+63)-luciferase in MCF-7 cells, endogenous thyroid hormone receptors", "type": "cell-based, human", "settings": "MCF-7, endogenous thyroid hormone receptors, substance added alone", "procedure": "as §4, §5\nExperiment 4.1. As MCF-7 cells express endogenous thyroid hormone receptors, only the collagenase promoter plasmid (at 8 ug per 5×10^5 cells) was transfected into the MCF-7 cells."}, "[7]": {"settings": "substance added with TPA 75 ng/ml, Dex 10^-7M"}, "[8]": {"settings": "substance added with TPA 75 ng/ml, DHT 10^-7M"}, "[9]": {"settings": "substance added alone, TPA 75 ng/ml"}}, "data": [{"smiles": "C[C@@H]1C[C@H]2[C@@H]3CCC4=CC(=O)C=C[C@]4(C)[C@@]3(F)[C@@H](O)C[C@]2(C)[C@@]1(O)C(=O)CO", "note": "[Dex, dexamethazone, reference compound]", "values": [{"measurement": "Raw Counts", "setting": "NFκB; substance added with TNF 4 ng/ml", "value": 18525, "unit": "counts"}, {"measurement": "% Control", "setting": "NFκB; substance added with TNF 4 ng/ml, Blank = 100", "value": 31, "unit": "%"}, {"measurement": "inhibitory effect on NFκB transcription, in words", "setting": "NFκB; with TNF", "value": "marked effect"}, {"measurement": "Raw counts (GR1)", "setting": "collagenase I promoter [1]; [7]", "value": 10981, "unit": "counts"}, {"measurement": "% control (GR1)", "setting": "collagenase I promoter [1]; [7]", "value": 86, "unit": "%"}, {"measurement": "collagenase I activation, in words (GR1)", "setting": "collagenase I promoter [1]; TPA-stimulated, glucocorticoid receptor", "value": "able to down regulate this activation"}]}, {"smiles": "C[C@]12CCC(=O)C[C@@H]1CC[C@@H]1[C@@H]2CC[C@]2(C)[C@@H](O)CC[C@@H]12", "note": "[DHT, dihydroxytestosterone, reference compound]", "values": [{"measurement": "Raw counts (AR)", "setting": "collagenase I promoter [2]; [8]", "value": 3711, "unit": "counts"}, {"measurement": "% control (AR)", "setting": "collagenase I promoter [2]; [8]", "value": 139, "unit": "%"}, {"measurement": "collagenase I activation, in words (AR)", "setting": "collagenase I promoter [2]; TPA-stimulated, androgen receptor", "value": "able to down regulate this activation"}]}, {"smiles": "CCCCCCCCCCCCCC(=O)O[C@@H]1[C@@H](C)[C@@]2(O)[C@@H](C=C(CO)C[C@]3(O)C(=O)C(C)=C[C@@H]23)[C@@H]2C(C)(C)[C@]12OC(C)=O", "note": "[TPA, 12-O—tetradecanoylphorbol-13-acetate, reference compound]", "values": [{"measurement": "% control (AR)", "setting": "collagenase I promoter [2]; substance added alone", "value": 436, "unit": "%"}, {"measurement": "Raw counts (AR)", "setting": "collagenase I promoter [2]; [9]", "value": 11639, "unit": "counts"}, {"measurement": "Raw counts (Empty)", "setting": "collagenase I promoter [3]; luciferase, TPA 75 ng/ml", "value": 5407, "unit": "counts"}, {"measurement": "% control (Empty)", "setting": "collagenase I promoter [3]; Blank = 100", "value": 225, "unit": "%"}, {"measurement": "% Control", "setting": "[4]; Blank = 100", "value": 341.2, "unit": "%"}, {"measurement": "Raw Counts", "setting": "[4]; CPII 10^-8M", "value": 4975, "unit": "counts"}, {"measurement": "% Control", "setting": "[5]; Blank = 100", "value": 528, "unit": "%"}, {"measurement": "Raw Counts", "setting": "[5]; CPII 10^-8M", "value": 11528, "unit": "counts"}, {"measurement": "% Control", "setting": "[6]; Blank = 100", "value": 1174.3, "unit": "%"}, {"measurement": "Raw Counts", "setting": "[6]; CPII 10^-8M", "value": 147665, "unit": "counts"}, {"measurement": "% control (GR1)", "setting": "collagenase I promoter [1]; substance added alone", "value": 448, "unit": "%"}, {"measurement": "Raw counts (GR1)", "setting": "collagenase I promoter [1]; [9]", "value": 57519, "unit": "counts"}]}]}
